Key:
Assay in all cases: relative viability (nuclei count vs DMSO), 5 days (fraction); higher = more cells survive
VE-821 + Olaparib = compound: CS(=O)(=O)c1ccc(-c2cnc(N)c(C(=O)Nc3ccccc3)n2)cc1 [VE-821] + O=C(c1cc(Cc2n[nH]c(=O)c3ccccc23)ccc1F)N1CCN(C(=O)C2CC2)CC1 [Olaparib] (partner 8 µM)
Summary of the method: (§1)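 Each reported value is a median over duplicate plates. It expresses relative viability: treated-well nuclei count divided by vehicle-well nuclei count. Lung cancer cell lines in 1536-well plates were dosed by pin tool a day after seeding, alone with one drug or with a fixed anchor-drug dose plus five library-drug doses (not always all listed) in √10 steps, and nuclei were counted after 5 days.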

Vismodegib + Palbociclib = compound: CS(=O)(=O)c1ccc(C(=O)Nc2ccc(Cl)c(-c3ccccn3)c2)c(Cl)c1 [Vismodegib] + CC(=O)c1c(C)c2cnc(Nc3ccc(N4CCNCC4)cn3)nc2n(C2CCCC2)c1=O [Palbociclib] (partner 0.5 µM)
Summary of the method: as §1

Vismodegib + Foretinib = compound: CS(=O)(=O)c1ccc(C(=O)Nc2ccc(Cl)c(-c3ccccn3)c2)c(Cl)c1 [Vismodegib] + COc1cc2c(Oc3ccc(NC(=O)C4(C(=O)Nc5ccc(F)cc5)CC4)cc3F)ccnc2cc1OCCCN1CCOCC1 [Foretinib] (partner 0.25 µM)
Summary of the method: as §1

Ruxolitinib + Decitabine = compound: N#CC[C@H](C1CCCC1)n1cc(-c2ncnc3[nH]ccc23)cn1 [Ruxolitinib] + Nc1ncn([C@H]2C[C@H](O)[C@@H](CO)O2)c(=O)n1 [Decitabine] (partner 2 µM)
Summary of the method: as §1

| Cell Line | relative viability (VE-821 + Olaparib; first compound 0.08 µM) | relative viability (VE-821 + Olaparib; first compound 0.253 µM) | relative viability (VE-821 + Olaparib; first compound 0.8 µM) | relative viability (VE-821 + Olaparib; first compound 2.53 µM) | relative viability (VE-821 + Olaparib; first compound 8 µM) | relative viability (Vismodegib + Palbociclib; first compound 0.08 µM) | relative viability (Vismodegib + Palbociclib; first compound 0.253 µM) | relative viability (Vismodegib + Palbociclib; first compound 0.8 µM) | relative viability (Vismodegib + Palbociclib; first compound 2.53 µM) | relative viability (Vismodegib + Palbociclib; first compound 8 µM) | relative viability (Vismodegib + Foretinib; first compound 0.08 µM) | relative viability (Vismodegib + Foretinib; first compound 0.253 µM) | relative viability (Vismodegib + Foretinib; first compound 0.8 µM) | relative viability (Vismodegib + Foretinib; first compound 2.53 µM) | relative viability (Vismodegib + Foretinib; first compound 8 µM) | relative viability (Ruxolitinib + Decitabine; first compound 0.08 µM) | relative viability (Ruxolitinib + Decitabine; first compound 0.253 µM) | relative viability (Ruxolitinib + Decitabine; first compound 0.8 µM) | relative viability (Ruxolitinib + Decitabine; first compound 2.53 µM) | relative viability (Ruxolitinib + Decitabine; first compound 8 µM) |
| --- | --- | --- | --- | --- | --- | --- | --- | --- | --- | --- | --- | --- | --- | --- | --- | --- | --- | --- | --- | --- |
| NCI-H3122 | 0.622 | 0.495 | 0.432 | 0.378 | 0.221 | 0.173 | 0.191 | 0.167 | 0.18 | 0.19 | 0.994 | 0.938 | 0.849 | 0.858 | 1.02 | 0.47 | 0.387 | 0.429 | 0.302 | 0.389 |
| PC-3 [JPC-3] | 1.19 | 1.15 | 1.24 | 1.12 | 0.958 | 0.522 | 0.547 | 0.511 | 0.506 | 0.572 | 1.08 | 1.01 | 0.965 | 0.993 | 1.03 | – | 0.856 | 0.899 | 0.754 | 0.718 |
| PC-14 | 0.292 | 0.282 | 0.167 | 0.137 | 0.097 | 0.494 | 0.492 | 0.614 | 0.587 | 0.621 | 0.91 | 0.948 | 0.984 | 0.998 | 0.963 | – | 0.282 | 0.207 | 0.153 | 0.156 |
| RERF-LC-KJ | 0.946 | 0.819 | 0.851 | 0.698 | 0.49 | 1.03 | 1 | 1.08 | 1.02 | 1.14 | 0.826 | 0.848 | 0.852 | 0.85 | 0.821 | 0.689 | 0.812 | 0.791 | 0.719 | 0.589 |
| SK-LU-1 | 0.51 | 0.497 | 0.462 | 0.401 | 0.324 | 0.407 | 0.416 | 0.416 | 0.376 | 0.384 | 0.76 | 0.821 | 0.875 | 0.753 | 0.818 | 0.547 | 0.693 | 0.755 | 0.522 | 0.622 |
| SK-MES-1 | 0.885 | 0.747 | 0.638 | 0.531 | 0.243 | 0.289 | 0.306 | 0.349 | 0.351 | 0.364 | 0.865 | 0.91 | 0.961 | 0.889 | 0.918 | 0.45 | 0.362 | 0.429 | 0.319 | 0.358 |
| SW 900 | 0.936 | 0.941 | 0.768 | 0.786 | 0.606 | 0.641 | 0.514 | 0.634 | – | 0.603 | 0.743 | 0.622 | 0.761 | 0.655 | 0.857 | 0.426 | 0.495 | 0.475 | 0.445 | 0.41 |
| SW 1573 | 0.533 | 0.516 | 0.418 | 0.269 | 0.21 | 0.395 | 0.398 | 0.363 | 0.406 | 0.451 | 0.994 | 0.908 | 0.907 | 0.895 | 1.01 | 0.547 | 0.512 | 0.667 | 0.377 | 0.518 |
